Patent US9115137B2, “2,3,4,5-tetrahydro-1H-pyrido[4,3-B]indole compounds and methods of use thereof” (priority 2008, dated 2015)
Where two headings read alike, the source gives them in different places.

Tests used:
[1] = target: T1, human recombinant histamine H1 receptor (Homo sapiens, UniProt P35367); test: Histamine H1 radioligand binding ([3H]Pyrilamine); conditions: read-out: Histamine Binding (1 μM) H1, percent inhibition of specific binding
T1 construct: expressed in transfected cells; host or cells: CHO cells
Protocol: To evaluate in radioligand binding assays the activity of compounds of the invention, human recombinant histamine H1 receptor expressed in Chinese hamster ovary (CHO) cells (De Backer, M. D. et al., Biochem. Biophys. Res. Comm. 197(3):1601, 1993) in a modified Tris-HCl buffer (50 mM Tris-HCl, pH 7.4, 2 mM MgCl2, 100 mM NaCl, 250 mM Sucrose) was used. Compounds of the invention were incubated with 1.2 nM [^3H]Pyrilamine for 180 minutes at 25° C. Non-specific binding was estimated in the presence of 1 μM pyrilamine. Receptor proteins were filtered and washed, the filters were then counted to determine [^3H]Pyrilamine specifically bound. Compounds were screened at 1 μM, using 1% DMSO as vehicle. Biochemical assay results are presented as the percent inhibition of specific binding in Table 5.

[2] = target: T2, human recombinant histamine H2 receptor (Homo sapiens, UniProt P25021); test: Histamine H2 radioligand binding ([125I]aminopotentidine); conditions: read-out: Histamine Binding (1 μM) H2, percent inhibition of specific binding
T2 construct: expressed in transfected cells; host or cells: CHO-K1 cells
Protocol: To evaluate in radioligand binding assays the activity of compounds of the invention, human recombinant histamine H2 receptor expressed in Chinese hamster ovary (CHO) K1 cells (Ruat, M., Proc. Natl. Acad. Sci. USA. 87(5):1658, 1990) in a 50 mM Phosphate buffer, pH 7.4 was used. Compounds of the invention were incubated with 0.1 nM [^125I]aminopotentidine for 120 minutes at 25° C. Non-specific binding was estimated in the presence of 3 μM Tiotidine. Receptor proteins were filtered and washed, the filters were then counted to determine [^125I]Aminopotentidine specifically bound. Compounds were screened at 1 μM, using 1% DMSO as vehicle. Biochemical assay results are presented as the percent inhibition of specific binding in Table 5.

[3] = target: T3, human recombinant serotonin (5-Hydroxytryptamine) 5-HT6 receptor (Homo sapiens, UniProt P50406); test: Serotonin 5-HT6 radioligand binding ([3H]LSD); conditions: read-out: Serotonin (1 μM) 5-HT6, percent inhibition of specific binding
T3 construct: expressed in transfected cells; host or cells: human HeLa cells
Protocol: To evaluate in radioligand binding assays the activity of compounds of the invention, human recombinant serotonin (5-Hydroxytryptamine) 5-HT6 receptor expressed in human HeLa cells (Monsma, F. J. Jr. et al., Mol. Pharmacol. 43:320, 1993) in a modified Tris-HCl buffer (50 mM Tris-HCl, pH 7.4, 150 mM NaCl, 2 mM Ascorbic Acid, 0.001% BSA) was used. Compounds of the invention were incubated with 1.5 nM [3H]Lysergic acid diethylamide (LSD) for 120 minutes at 37° C. Non-specific binding was estimated in the presence of 5 μM Serotonin (5-HT). Receptor proteins were filtered and washed, the filters were then counted to determine [3H]LSD specifically bound. Compounds were screened at 1 μM or lower, using 1% DMSO as vehicle. Biochemical assay results are presented as the percent inhibition of specific binding in Table 7.

[4] = target: T4, human recombinant adrenergic α1D receptor (Homo sapiens, UniProt P25100); test: Adrenergic α1D radioligand binding ([3H]Prozosin); conditions: read-out: Adrenergic (1 μM) α1D, percent inhibition of specific binding
T4 construct: expressed in transfected cells; host or cells: HEK-293 cells
T4 sequence (P25100 1-572): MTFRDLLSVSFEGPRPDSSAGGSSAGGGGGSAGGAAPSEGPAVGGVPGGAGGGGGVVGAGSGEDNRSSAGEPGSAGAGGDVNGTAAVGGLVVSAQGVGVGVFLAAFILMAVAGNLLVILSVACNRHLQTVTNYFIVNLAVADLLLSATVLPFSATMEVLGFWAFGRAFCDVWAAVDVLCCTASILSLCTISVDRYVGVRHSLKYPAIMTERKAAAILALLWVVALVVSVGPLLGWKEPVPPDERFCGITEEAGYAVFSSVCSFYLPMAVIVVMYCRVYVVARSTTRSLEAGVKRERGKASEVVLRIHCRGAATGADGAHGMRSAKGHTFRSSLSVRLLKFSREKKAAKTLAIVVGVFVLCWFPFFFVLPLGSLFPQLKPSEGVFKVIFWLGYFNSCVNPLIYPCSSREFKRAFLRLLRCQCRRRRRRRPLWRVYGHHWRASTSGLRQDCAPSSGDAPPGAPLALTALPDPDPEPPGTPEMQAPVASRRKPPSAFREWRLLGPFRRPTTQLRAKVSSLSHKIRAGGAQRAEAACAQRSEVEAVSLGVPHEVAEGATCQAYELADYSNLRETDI
Protocol: To evaluate in radioligand binding assays the activity of compounds of the invention, human recombinant adrenergic α1D receptor expressed in human embryonic kidney (HEK-293) cells (Kenny, B. A. et al. Br. J. Pharmacol. 115(6):981, 1995) in a 50 mM Tris-HCl buffer, pH 7.4, was used. Compounds of invention were incubated with 0.6 nM [^3H]Prozosin for 60 minutes at 25° C. Non-specific binding was estimated in the presence of 10 μM phentolamine. Receptor proteins were filtered and washed, the filters were then counted to determine [^3H]Prozosin specifically bound. Compounds were screened at 1 μM or lower, using 1% DMSO as vehicle. Biochemical assay results are presented as the percent inhibition of specific binding in Table 6.

[5] = compound at 1 μM, HEK-293 cells

T2 sequence (P25021 whole entry): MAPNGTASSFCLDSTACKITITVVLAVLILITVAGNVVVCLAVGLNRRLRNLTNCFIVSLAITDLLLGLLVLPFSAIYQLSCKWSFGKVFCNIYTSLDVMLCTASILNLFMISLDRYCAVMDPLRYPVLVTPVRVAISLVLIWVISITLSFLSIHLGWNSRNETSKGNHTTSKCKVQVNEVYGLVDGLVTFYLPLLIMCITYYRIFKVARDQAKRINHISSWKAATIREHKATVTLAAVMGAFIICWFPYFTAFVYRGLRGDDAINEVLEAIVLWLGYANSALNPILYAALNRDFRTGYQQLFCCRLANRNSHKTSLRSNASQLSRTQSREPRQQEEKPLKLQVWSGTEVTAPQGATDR
T3 sequence (P50406 whole entry): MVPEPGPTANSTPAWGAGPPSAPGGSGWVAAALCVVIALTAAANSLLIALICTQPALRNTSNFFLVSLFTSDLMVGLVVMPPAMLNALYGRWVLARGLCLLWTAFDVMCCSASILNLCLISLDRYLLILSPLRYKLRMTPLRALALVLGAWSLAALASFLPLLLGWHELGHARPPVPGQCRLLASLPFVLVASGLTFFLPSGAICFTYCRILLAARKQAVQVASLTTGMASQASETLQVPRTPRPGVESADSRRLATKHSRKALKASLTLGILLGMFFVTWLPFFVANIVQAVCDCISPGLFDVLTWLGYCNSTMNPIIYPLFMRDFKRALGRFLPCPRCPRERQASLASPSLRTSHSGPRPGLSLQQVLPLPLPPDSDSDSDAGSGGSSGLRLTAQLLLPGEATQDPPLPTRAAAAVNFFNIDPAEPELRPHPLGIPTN
T1 sequence (P35367 whole entry): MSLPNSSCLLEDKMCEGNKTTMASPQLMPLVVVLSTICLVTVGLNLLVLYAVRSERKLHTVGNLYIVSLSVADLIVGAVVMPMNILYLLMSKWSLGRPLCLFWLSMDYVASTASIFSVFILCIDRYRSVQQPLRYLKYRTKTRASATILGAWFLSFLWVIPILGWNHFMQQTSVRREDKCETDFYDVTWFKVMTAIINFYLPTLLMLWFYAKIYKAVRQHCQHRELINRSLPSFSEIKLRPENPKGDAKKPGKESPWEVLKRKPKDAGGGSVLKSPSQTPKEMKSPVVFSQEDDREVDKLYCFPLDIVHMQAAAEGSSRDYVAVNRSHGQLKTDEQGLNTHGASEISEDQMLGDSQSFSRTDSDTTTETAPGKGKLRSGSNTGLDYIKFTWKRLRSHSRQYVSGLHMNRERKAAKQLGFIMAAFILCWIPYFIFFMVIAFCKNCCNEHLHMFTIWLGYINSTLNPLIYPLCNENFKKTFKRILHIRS

SMILES	inhibition at 1 µM ([1]; compound at 1 μM, CHO cells)	inhibition at 1 µM ([2]; compound at 1 μM, CHO K1 cells)	inhibition at 1 µM ([3]; compound at 1 μM, HeLa cells)	inhibition at 1 µM [4, 5]	inhibition at 1 µM [1]	inhibition at 1 µM [2]	inhibition at 1 µM [3]	inhibition at 1 µM [4]
CCOC(=O)CCn1c2c(c3cc(C)ccc31)CN(C)CC2 [CD1, ethyl 3-(1,2,3,4-tetrahydro-2,8-dimethylpyrido[4,3-b]indol-5-yl)propanoate]	101%	35%	78%	54%	–	–	–	–
CCOC(=O)CCn1c2c(c3cc(Cl)ccc31)CN(C)CC2 [CD17, ethyl 3-(8-chloro-1,2,3,4-tetrahydro-2-methylpyrido[4,3-b]indol-5-yl)propanoate]	100%	46%	101%	70%	–	–	–	–
CN1CCc2c(c3cc(Cl)ccc3n2CC(=O)O)C1 [CD46, 2-(8-chloro-1,2,3,4-tetrahydro-2-methylpyrido[4,3-b]indol-5-yl)acetic acid]	69%	-3%	39%	10%	–	–	–	–
Cc1ccc2c(c1)c1c(n2CCC(=O)O)CCN(C)C1 [CD47, 3-(1,2,3,4-tetrahydro-2,8-dimethylpyrido[4,3-b]indol-5-yl)propanoic acid]	25%	16%	11%	6%	–	–	–	–
CN1CCc2c(c3cc(Cl)ccc3n2CCC(=O)O)C1 [CD55, 3-(8-chloro-1,2,3,4-tetrahydro-2-methylpyrido[4,3-b]indol-5-yl)propanoic acid]	22%	-2%	-3%	14%	–	–	–	–
CCOC(=O)Cn1c2c(c3cc(C)ccc31)CN(C)CC2 [CD57, ethyl 2-(1,2,3,4-tetrahydro-2,8-dimethylpyrido[4,3-b]indol-5-yl)acetate]	100%	28%	67%	39%	–	–	–	–
Cc1ccc2c(c1)c1c(n2CC(=O)O)CCN(C)C1 [CD58, 2-(1,2,3,4-tetrahydro-2,8-dimethylpyrido[4,3-b]indol-5-yl)acetic acid]	5%	5%	-5%	0%	–	–	–	–
Cc1ccc2c(c1)c1c(n2CC#N)CCN(C)C1 [CD61, 2-(1,2,3,4-tetrahydro-2,8-dimethylpyrido[4,3-b]indol-5-yl)acetonitrile]	98%	15%	68%	74%	–	–	–	–
Cc1ccc2c(c1)c1c(n2CCN)CCN(C)C1 [CD62, 2-(1,2,3,4-tetrahydro-2,8-dimethylpyrido[4,3-b]indol-5-yl)ethanamine]	44%	65%	12%	34%	–	–	–	–
C#CCn1c2c(c3cc(C)ccc31)CN(C)CC2 [CD73, 2,8-dimethyl-5-(prop-2-ynyl)-2,3,4,5-tetrahydro-1H-pyrido[4,3-b]indole]	96%	19%	83%	57%	–	–	–	–
CN1CCc2c(c3cc(Cl)ccc3n2CCCO)C1 [CD87, 3-(8-chloro-2-methyl-3,4-dihydro-1H-pyrido[4,3-b]indol-5(2H)-yl)propan-1-ol]	97%	18%	35%	75%	–	–	–	–
CN1CCc2c(c3cc(Cl)ccc3n2CCBr)C1 [CD88, 5-(2-bromoethyl)-8-chloro-2-methyl-2,3,4,5-tetrahydro-1H-pyrido[4,3-b]indole]	–	–	–	–	98%	64%	87%	94%
CN1CCc2c(c3cc(Cl)ccc3n2CCO)C1 [CD89, 2-(8-chloro-2-methyl-3,4-dihydro-1H-pyrido[4,3-b]indol-5(2H)-yl)ethanol]	92%	14%	36%	69%	–	–	–	–
Cc1ccc2c(c1)c1c(n2CCO)CCN(C)C1 [CD90, 2-(2,8-dimethyl-3,4-dihydro-1H-pyrido[4,3-b]indol-5(2H)-yl)ethanol]	60%	11%	7%	23%	–	–	–	–
Cc1ccc2c(c1)c1c(n2CCBr)CCN(C)C1 [CD91, 5-(2-bromoethyl)-2,8-dimethyl-2,3,4,5-tetrahydro-1H-pyrido[4,3-b]indole]	98%	65%	88%	88%	–	–	–	–
Cc1ccc2c(c1)c1c(n2CCC#N)CCN(C)C1 [CD92, 3-(2,8-dimethyl-3,4-dihydro-1H-pyrido[4,3-b]indol-5(2H)-yl)propanenitrile]	99%	8%	47%	78%	–	–	–	–
CN1CCc2c(c3cc(Cl)ccc3n2CCC#N)C1 [CD94, 3-(8-chloro-2-methyl-3,4-dihydro-1H-pyrido[4,3-b]indol-5(2H)-yl)propanenitrile]	97%	2%	40%	74%	–	–	–	–
CNC(=O)CCn1c2c(c3cc(C)ccc31)CN(C)CC2 [Compound 1, 3-(1,2,3,4-tetrahydro-2,8-dimethylpyrido[4,3-b]indol-5-yl)-N-methylpropanamide]	34%	8%	8%	20%	–	–	–	–
CCNC(=O)CCn1c2c(c3cc(C)ccc31)CN(C)CC2 [Compound 2, N-ethyl-3-(1,2,3,4-tetrahydro-2,8-dimethylpyrido[4,3-b]indol-5-yl)propanamide]	52%	5%	19%	17%	–	–	–	–
Cc1ccc2c(c1)c1c(n2CCC(=O)NC2CCCCC2)CCN(C)C1 [Compound 3, N-cyclohexyl-3-(1,2,3,4-tetrahydro-2,8-dimethylpyrido[4,3-b]indol-5-yl)propanamide]	2%	23%	19%	45%	–	–	–	–
Cc1ccc2c(c1)c1c(n2CCNC(=O)C2CCCNC2)CCN(C)C1 (centres unmarked) [Compound 9, N-(2-(1,2,3,4-tetrahydro-2,8-dimethylpyrido[4,3-b]indol-5-yl)ethyl)piperidine-3-carboxamide]	–	-44%	-5%	11%	–	–	–	–
